The values that follow come from US12583835B2, “Crystal form of nitroxoline prodrug, pharmaceutical composition containing same, and preparation method therefor and application thereof” (Jiangsu Yahong Meditech Co., Ltd., priority 2020, dated 2026).

The nature of data set [1]: Pharmacokinetic assay in rats. Type of data set: in vivo. As to conditions: SD rats, oral 0.1 mmol/kg, 24 h, individual animals. The source says:
In this experiment, after a single intravenous or oral administration of nitroxoline and the compound obtained in Example 1 to rats, the changes in the concentration of the compound nitroxoline in rat plasma were studied, so as to evaluate the in vivo pharmacokinetic behaviors of nitroxoline and the compound obtained in Example 1 in rats.
Male SD rats (Beijing Vital River Laboratory Animal Technology Co., Ltd., laboratory animal production license No.: SCXK (Beijing) 2016-0006, laboratory animal certificate No.: 11400700325643), 3 rats per group, weight 180-250 g, 6-7 weeks old, were fasted overnight before drug administration with free access to water, and food was given 4 hours after drug administration. The compound to be tested was put into an EP tube, 1.017 mL dimethyl sulfoxide, 2.035 mL Solutol® and sterile water for injection (the volume ratio of the three was 1:2:17, v:v:v) were added, and the EP tube was sonicated for 20 minutes to fully dissolve the compound (formulation concentration of the compound: 0.005 mmol/mL). […]
Sample to be tested: to 50 μL of plasma sample to be tested was added 5 μL of diluted working solution, then 150 μL of internal standard working solution (a solution of 2 ng/mL diphenhydramine in acetonitrile), and the resulting solution was vortexed for 1 minute. […] Pharmacokinetic parameters were calculated using WinNonlin V6.2 non-compartmental model.

For data set [2] the following is noted: human; single-arm, open-label, multi-center phase II clinical trial; cited from earlier work.
A short description of data set [3]: Pharmacokinetic assay in dogs. It is filed as in vivo. As to conditions: beagles. The source says: Nitroxoline is mainly metabolized by Phase II metabolism in the liver with a high metabolism rate, thus the in vivo half-life is short. In this experiment, after a single intravenous or oral administration of nitroxoline and the compound obtained in Example 1 to dogs, the changes in the concentration of the compound nitroxoline in dog plasma were studied, so as to evaluate the in vivo pharmacokinetic behaviors of nitroxoline and the compound obtained in Example 1.
Male beagles (Beijing Marshall Bioresources Co., Ltd., laboratory animal production license No.: SCXK (Beijing) 2016-0001, laboratory animal certificate No.: 11400600001728), 3 beagles per group, weight 10-13 kg, 20-22 months old, were fasted overnight before drug administration with free access to water, and food was given 4 hours after drug administration. The compound to be tested was put into an EP tube, dimethyl sulfoxide, Solutol® and sterile water for injection (the volume ratio of the three was 1:2:17, v:v:v) were added, and the EP tube was sonicated for 20 minutes to fully dissolve the compound (formulation concentration of the compound: 0.005 mmol/mL). The intravenous dose was 0.01 mmol/kg, and the oral dose was 0.1 mmol/kg. 0.3 ml of whole blood was collected from the jugular vein before drug administration (0 hour) and 0.0833, 0.25, 0.5, 0.75, 1, 2, 4, 6, 8, 10 and 12 hours after drug administration (the sampling points were adjusted according to the situation) and placed in a centrifuge tube containing EDTA-K2 (Aldrich Reagents) for anticoagulation, which was placed in crushed ice after sample collection. The tube was centrifuged at 1530 g for 10 minutes within 0.5 hours of sample collection. All clean plasma were isolated and placed in another clean centrifuge tube, which was placed in a −20° C. refrigerator until testing.
A series of solutions for standard curve was prepared. To 10 μL of solutions for standard curve and samples was added 1000 μL of internal standard working solution (a solution of 5 ng/mL verapamil (Aldrich Reagents), 50 ng/mL glibenclamide (Aldrich Reagents) and 50 ng/mL diclofenac (Aldrich Reagents) in acetonitrile) was added, and the resulting solution was vortexed for 5 minutes. After centrifuging at 4° C., 3700 rpm for 10 minutes, 60 μL of the supernatant was collected into a sample tube and mixed well with 120 μL of water, and 10 μL of the mixed solution was injected into the LC/MS system for determination. Pharmacokinetic parameters were calculated using WinNonlin V6.2 non-compartmental model.

The nature of data set [4]: Stability in liver microsome (human). Type of data set: in vitro ADME. To be noted: 2 μM, 30 minutes, 37° C. Here is the method: (§1) Experimental instruments: thermostatic oscillator (SHA-B, Guohua Instrument); centrifuge (5810R, Eppendorf), mass spectrometer (API4000, Applied), liquid chromatography (LC-30AD, Shimadzu); sampler (CTC Analytics AG System, CTC).
(§2) Experimental procedures: to 100 mM phosphate buffer was added 25 μg/mL alamethicin (Aldrich Reagents), 5 mM magnesium chloride and 0.5 mg/mL microsomes (XENOTECH) to prepare a reaction solution without coenzymes. To a portion of the reaction solution was added 1 mM reduced nicotinamide adenine dinucleotide phosphate (Aldrich Reagents) and 5 mM uridine diphosphate glucuronic acid (Aldrich Reagents) to prepare a reaction solution with coenzymes. […] Immediately after mixing well, 50 μL of the solution was collected as the 0-minute sample, and another 50 μL was collected after 30 minutes of incubation of the remaining sample at 37° C. The proteins in all collected samples were immediately precipitated, and the supernatants were collected by centrifugation, in which the compound concentrations were determined by LC/MS/MS.
Background: Liver microsomes are vesicles of endoplasmic reticulum, rich in cytochrome P450 enzymes.

The nature of data set [5]: Stability in liver microsome (rat). Type of data set: in vitro ADME. To be noted: 2 μM, 30 minutes, 37° C. Here is the method: as §1, §2
Data set [6] in a line: Stability in liver microsome (dog). Type of data set: in vitro ADME. As to conditions: 2 μM, 30 minutes, 37° C. Here is the method:
as §1, §2

Data set [7] can be described thus: Stability in liver microsome (mouse). Type of data set: in vitro ADME. As to conditions: 2 μM, 30 minutes, 37° C. Here is the method: as §1, §2

SMILES strings stand for the structures. “And” between values parts separate entries of the source, which are not always exact repeats. Equal entries are not always repeated.

For `O=[N+]([O-])c1ccc(O)c2ncccc12` [Nitroxoline, 5-nitro-8-hydroxyquinoline], the “Plasma concentration of nitroxoline” value in data set [1] was <5.0 ng/mL (2×) and 14.6 ng/mL. The half-life in data set [2] is 1.22 to 1.44 h. In addition, the “AUC0-inf of nitroxoline in plasma” value is reported as 3300 ng*hmL^−1 in data set [3] (intravenous 0.01 mmol/kg) and 4780 ng*hmL^−1 in data set [3] (oral 0.1 mmol/kg).

Regarding `CC(C)C(=O)N1CCC[C@H]1C(=O)OCOc1ccc([N+](=O)[O-])c2cccnc12` [Compound obtained in Example 1, ((5-nitroquinolin-8-yl)oxy)methyl-isobutyryl-L-prolinate], the results for the “Percentage (%) of remaining compound in human liver microsomes” value in data set [4] (With coenzyme) and in data set [4] (Without coenzyme) were 26.92% and 59.42%, respectively. The entries for the “AUC0-inf of nitroxoline in plasma” value in data set [3] (intravenous 0.01 mmol/kg) and in data set [3] (oral 0.1 mmol/kg) were 1290 ng*hmL^−1 and 8750 ng*hmL^−1, respectively. The “Percentage (%) of remaining compound in rat liver microsomes” value in data set [5] (With coenzyme) is listed as 3.64%; in data set [5] (Without coenzyme), 46.82%. Besides, the results for the “Percentage (%) of remaining compound in dog liver microsomes” value in data set [6] (With coenzyme) and in data set [6] (Without coenzyme) were 33.13% and 53.50%, respectively. Also, the “Percentage (%) of remaining compound in mouse liver microsomes” value was determined as 0.09% in data set [7] (With coenzyme) and 49.07% in data set [7] (Without coenzyme).

The term half-life denotes the time in which the quantity being followed falls by half.
